Data set [1] concerns tubovesicular network of P. falciparum. The data set can be described thus: Tubovesicular network formation, BODIPY-FL-C5-ceramide fluorescence microscopy. Format: cell-based, Plasmodium falciparum. How it is done: Infected erythrocytes treated with or without ceramide analogs were incubated for 30 min, at 37°C, in culture medium containing 10 μM BODIPY-FL-C5-ceramide, washed three times with culture medium without serum and fixed overnight, at 4°C, in 3.7% formaldehyde/0.05% glutaraldehyde. Cells were mounted on poly-L-lysine coated slides and viewed using a Nikon Eclipse TE 300 DV inverted microscope with an 100X oil objective mounted on a piezzo electric device using appropriate fluorescence emission filters. Image acquisition (z-series) was performed with a back illuminated cooled detector (CCD EEV: NTE/CCD-1024-EB, Roper Scientific, France) using a 0.2 μm step. Data acquisition and image deconvolution process were performed with Metamorph software (Universal Imaging Corporation, Roper Scientific, France). The images presented correspond to the maximum intensity projection of the deconvoluted z-series.

Another data set relates to P. falciparum. Put plainly: Apoptosis of parasites (TdT DNA fragmentation assay, gel electrophoresis, fluorescence microscopy). Format: cell-based, Plasmodium falciparum. Particulars: 1 μM for up to 36 hours (unpublished data, preliminary). From the text: Ceramide is at the parting of different ways of sphingolipid metabolism. Analogs have the potential to inhibit different ceramide-metabolizing enzymes and then might have a pleiotropic effect. Ceramide analogs in amide linkage were described as potent inhibitors of alkaline ceramidase in HL60 human myeloid leukemic cells. Methylene analogs inhibit the biosynthesis of SPM and glycosphingolipids in HL60 cells, and acid ceramidase in vitro [10]. When applied to cancer cells, such analogs induced an elevation of the endogenous level of ceramide with the consequent effects of growth suppression and cell death by apoptosis. […] Apoptosis in P. falciparum is still controversial although some characteristics of apoptosis has been described in Plasmodium. […] The hypothesis that AD2646 induced parasite death through modulation of endogenous ceramide level, as observed for cancer cells, is under investigation.

The next data set deals with P. falciparum strain W2. Put plainly: Anti-Plasmodium activity, strain W2. It counts as cell-based. How it is done:
(§1) P. falciparum strains (FcB1/Colombia, K1/Thailand, F32/Tanzania, W2/Indochina) were maintained in continuous culture on human erythrocytes in RPMI medium containing 7% (v/v) heat-inactivated human serum under an atmosphere of 3% CO2, 6% O2, 91% N2, at 37°C, as described by Trager and Jensen. Parasite synchronization was performed successively by treatment with 5% (w/v) sorbitol and by concentration in gelatin solution as previously described.
(§2) Drug susceptibility assays were performed using a modification of the semi automated microdilution technique of Desjardins et al.. Stock solutions of test compounds were prepared in DMSO. Drug solutions were serially diluted twofold with 100 μl culture medium in 96-well plates. Asynchronous parasite cultures (100 μl, 1 % parasitemia and 1 % final hematocrite) were added to each well and incubated for 24 hours at 37°C prior to the addition of 0.5 μCi of [^3H] hypoxanthine (Amersham, France, 1 to 5 Ci.mmol/ml) per well. After a further incubation of 24 hour, plates were frozen and thawed. Cell lysates were then collected onto glass-filter papers and counted in a liquid scintillation spectrometer. The growth inhibition for each drug concentration was determined by comparison of the radioactivity incorporated in the treated culture with that in the control culture (having the same final % of DMSO) maintained on the same plate. […]

In the next data set the test system is P. falciparum strain F32. The data set can be described thus: Anti-Plasmodium activity, strain F32. Format: cell-based. As to the method:
as §1, §2

Data set [2] is described as follows: Cytotoxicity test upon human embryonic cells (MTT). Format: cell-based. Particulars: human, MRC-5 human diploid embryonic lung cells; MRC-5, five days, MTT; mean of three experiments. As to the method:
(§3) A human diploid embryonic lung cell line (MRC-5, Bio-Whittaker 72211D) was used to assess the cytotoxic effects towards eukaryotic host cells. MRC-5 cells were seeded at 5,000 cells per well in 100 μl. After 24 hours, the cells were washed and two-fold dilutions of the drug were added in 200 μl standard culture medium (RPMI medium + 5% fetal calf serum) and maintained for five days under 5% CO2 atmosphere. The final DMSO concentration in the culture remained below 0.1%. Untreated cultures were included as controls. The cytotoxicity was determined using the colorimetric MTT assay according to the manufacturer's recommendations (Cell proliferation kit I, Roche Applied Science, France) and scored as a percentage of reduction in absorption at 540 nm of treated cultures versus untreated control cultures. […] The results were expressed as the mean ± the standard deviations determined from several independent experiments. The index of selectivity was defined as the ratio of the IC50 value on MRC-5 to that of P. falciparum.

For another data set, the system named is human MRC-5 cells. Put plainly: Cytotoxicity test upon human embryonic cells (MTT). It counts as cell-based. As to the method: as §3

By IC50 is commonly meant the concentration that gives 50% inhibition. A low value points to greater potency in that assay. Usually IC90 stands for the concentration needed for an effect of 90%. High values mean weaker potency, low ones greater potency. For the compound `CCCCCCCCCCCCCCN[C@H](CO)[C@H](O)c1ccc([N+](=O)[O-])cc1` [AD2646], the parasite development entry in data set [1] (60 nM) is “blocks irreversibly the parasite development”. Besides, the TVN formation result in data set [1] (rings incubated 24 hours with 60 nM AD2646 or 5 μM PPMP) is “TVN was distinctly observed”. Moreover, the apoptosis of parasites result in the data set with P. falciparum was “failed to exhibit characteristic apoptosis”. Moreover, the IC50 in the data set on P. falciparum strain W2 is 28 nM; in the data set with P. falciparum strain F32 it was 21 nM; in the data set on human MRC-5 cells (Homo sapiens, MRC5, 120 h, MRC-5, five days, MTT, mean of three experiments) it was 4900 nM. Besides, it took 7500 nM to reach the 90% level in data set [2] (IC90 at 5 days). In addition, the Index of selectivity in the data set with human MRC-5 cells (ratio of the IC50 value on MRC-5 cells to that on P. falciparum) is on record as 160.
